# Data from patent US10676446B2, “Bicyclic quinazolinone derivatives” (Hoffmann-La Roche Inc., priority 2015, dated 2020).
# Target: human ATX (autotaxin, ENPP2), His-tagged (Homo sapiens (Human), UniProt Q13822)
# Assay: Human ATX enzyme inhibition assay (fluorescence quenching, MR121 substrate)
# Format: biochemical
# Settings: 30 nM ATX, 1 μM MR121 substrate, 30° C., pH 8.0
# Method: Human ATX Enzyme Inhibition Assay
# ATX inhibition was measured by a fluorescence quenching assay using a specifically labeled substrate analogue (MR121 substrate). To obtain this MR121 substrate, BOC and TBS protected 6-amino-hexanoic acid (R)-3-({2-[3-(2-{2-[2-(2-amino-ethoxy)-ethoxy]-ethoxy}-ethoxy)-propionylamino]-ethoxy}-hydroxy-phosphoryloxy)-2-hydroxy-propyl ester (Ferguson et al., Org. Lett. 2006, 8, 2023) was labeled with MR121 fluorophore [CAS RN 185308-24-1], 1-(3-carboxypropyl)-11-ethyl-1,2,3,4,8,9,10,11-octahydro-dipyrido[3,2-b:2′,3′-i]phenoxazin-13-ium) on the free amine of the ethanolamine side and then, after deprotection, subsequently with tryptophan on the side of the aminohexanoic acid.
# Assay working solutions were made as follows:
# Assay buffer (50 mM Tris-HCl, 140 mM NaCl, 5 mM KCl, 1 mM CaCl2, 1 mM MgCl2, 0.01% Triton-X-100, pH 8.0;
# ATX solution: ATX (human His-tagged) stock solution (1.08 mg/mL in 20 mM bicine, pH 8.5, 0.15 M NaCl, 10% glycerol, 0.3% CHAPS, 0.02% NaN3), diluted to 1.4-2.5× final concentration in assay buffer;
# MR121 substrate solution: MR121 substrate stock solution (800 μM MR121 substrate in DMSO), diluted to 2-5× final concentration in assay buffer.
# Test compounds (10 mM stock in DMSO, 8 μL) were obtained in 384 well sample plates (Corning Costar #3655) and diluted with 8 μL DMSO. Row-wise serial dilutions were made by transferring 8 μL cpd solution to the next row up to row O. The compound and control solutions were mixed five times and 2 μL were transferred to 384 well assay plates (Corning Costar #3702). Then, 15 μL of 41.7 nM ATX solution was added (30 nM final concentration), mixed five times and then incubated for 15 minutes at 30° C. 10 μL of MR121 substrate solution was added (1 μM final concentration), mixed 30 times and then incubated for 15 minutes at 30° C.
row,Compound,IC50 [nM]
1,"CNC(=O)CCN(Cc1ccc(Cl)c(Cl)c1)C(=O)Cn1cnc2ccc(N3CCN(C(C)=O)CC3)cc2c1=O [Example 55, 3-[[2-[6-(4-Acetylpiperazin-1-yl)-4-oxoquinazolin-3-yl]acetyl]-[(3,4-dichlorophenyl)methyl]amino]-N-methylpropanamide]",38
2,"CC(=O)N1CCN(c2ccc3ncn(CC(=O)N(C)Cc4ccc(C#N)c(Cl)c4)c(=O)c3c2)CC1 [Example 56, 2-[6-(4-Acetylpiperazin-1-yl)-4-oxoquinazolin-3-yl]-N-[(3-chloro-4-cyanophenyl)methyl]-N-methylacetamide]",8
3,"CC(=O)N1CCN(c2ccc3ncn(CC(=O)N(C)Cc4ccc(Cl)c(C#N)c4)c(=O)c3c2)CC1 [Example 57, 2-[6-(4-Acetylpiperazin-1-yl)-4-oxoquinazolin-3-yl]-N-[(4-chloro-3-cyanophenyl)methyl]-N-methylacetamide]",8
4,"CC(=O)N1CCN(c2ccc3ncn(CC(=O)N(C)Cc4cc(F)c(C#N)c(F)c4)c(=O)c3c2)CC1 [Example 58, 2-[6-(4-Acetylpiperazin-1-yl)-4-oxoquinazolin-3-yl]-N-[(4-cyano-3,5-difluorophenyl)methyl]-N-methylacetamide]",15
5,"CC(C)CC(=O)N1CCN(c2ccc3ncn(CC(=O)NCc4ccc(Cl)c(Cl)c4)c(=O)c3c2)CC1 [Example 59, N-[(3,4-Dichlorophenyl)methyl]-2-[6-[4-(3-methylbutanoyl)piperazin-1-yl]-4-oxoquinazolin-3-yl]acetamide]",70
6,CCCCC(=O)N1CCN(c2ccc3ncn(CC(=O)NCc4ccc(Cl)c(Cl)c4)c(=O)c3c2)CC1 [Example 60],10
7,COCC(=O)N1CCN(c2ccc3ncn(CC(=O)NCc4ccc(Cl)c(Cl)c4)c(=O)c3c2)CC1 [Example 61],16
8,O=C(Cn1cnc2ccc(N3CCN(C(=O)C(F)(F)F)CC3)cc2c1=O)NCc1ccc(Cl)c(Cl)c1 [Example 62],11
9,O=C(Cn1cnc2ccc(N3CCN(C(=O)C4CCC4)CC3)cc2c1=O)NCc1ccc(Cl)c(Cl)c1 [Example 63],11
10,O=C(Cn1cnc2ccc(N3CCN(C(=O)C4CCCC4)CC3)cc2c1=O)NCc1ccc(Cl)c(Cl)c1 [Example 64],4
11,O=C(Cn1cnc2ccc(N3CCN(C(=O)C4CCCCC4)CC3)cc2c1=O)NCc1ccc(Cl)c(Cl)c1 [Example 65],10
12,O=C(Cn1cnc2ccc(N3CCN(C(=O)C4CCOCC4)CC3)cc2c1=O)NCc1ccc(Cl)c(Cl)c1 [Example 66],190
13,O=C(Cn1cnc2ccc(N3CCN(C(=O)c4ccno4)CC3)cc2c1=O)NCc1ccc(Cl)c(Cl)c1 [Example 67],15
14,CCC(=O)N1CCN(c2ccc3ncn(CC(=O)N(C)Cc4ccc(Cl)c(Cl)c4)c(=O)c3c2)CC1 [Example 68],4
15,CC(C)C(=O)N1CCN(c2ccc3ncn(CC(=O)N(C)Cc4ccc(Cl)c(Cl)c4)c(=O)c3c2)CC1 [Example 69],3
16,"NC1(C(=O)N2CCN(c3ccc4ncn(CC(=O)NCc5ccc(Cl)c(Cl)c5)c(=O)c4c3)CC2)COC1 [Example 70, 2-[6-[4-(3-Aminooxetane-3-carbonyl)piperazin-1-yl]-4-oxoquinazolin-3-yl]-N-[(3,4-dichlorophenyl)methyl]acetamide]",318
17,NS(=O)(=O)CC(=O)N1CCN(c2ccc3ncn(CC(=O)NCc4ccc(Cl)c(Cl)c4)c(=O)c3c2)CC1 [Example 71],26
18,CN(Cc1ccc(Cl)c(Cl)c1)C(=O)Cn1cnc2ccc(N3CCN(C(=O)C4CCC4)CC3)cc2c1=O [Example 73],6
19,CN(Cc1ccc(Cl)c(Cl)c1)C(=O)Cn1cnc2ccc(N3CCN(C(=O)C4CC(F)C4)CC3)cc2c1=O (stereo not drawn) [Example 74],7
20,CN(Cc1ccc(Cl)c(Cl)c1)C(=O)Cn1cnc2ccc(N3CCN(C(=O)C4CC(F)(F)C4)CC3)cc2c1=O [Example 75],5
21,CN(Cc1ccc(Cl)c(Cl)c1)C(=O)Cn1cnc2ccc(N3CCN(C(=O)C4(C(F)(F)F)CCC4)CC3)cc2c1=O [Example 76],10
22,CN(Cc1ccc(Cl)c(Cl)c1)C(=O)Cn1cnc2ccc(N3CCN(C(=O)C4CC(Cl)C4)CC3)cc2c1=O (stereo not drawn) [Example 77],3
23,COC1CC(C(=O)N2CCN(c3ccc4ncn(CC(=O)N(C)Cc5ccc(Cl)c(Cl)c5)c(=O)c4c3)CC2)C1 (stereo not drawn) [Example 78],9
24,CN(Cc1ccc(Cl)c(Cl)c1)C(=O)Cn1cnc2ccc(N3CCN(C(=O)C4COC4)CC3)cc2c1=O [Example 79],10

row,Compound,IC50 [nM]
1,CN(Cc1ccc(Cl)c(Cl)c1)C(=O)Cn1cnc2ccc(N3CCN(C(=O)C4(C)COC4)CC3)cc2c1=O [Example 80],12
2,CC(=O)N1CC(C(=O)N2CCN(c3ccc4ncn(CC(=O)N(C)Cc5ccc(Cl)c(Cl)c5)c(=O)c4c3)CC2)C1 [Example 81],73
3,"CC(C)NC(=O)N1CCN(c2ccc3ncn(CC(=O)NCc4ccc(Cl)c(Cl)c4)c(=O)c3c2)CC1 [Example 82, 4-[3-[2-[(3,4-Dichlorophenyl)methylamino]-2-oxoethyl]-4-oxoquinazolin-6-yl]-N-propan-2-ylpiperazine-1-carboxamide]",43
4,O=C(Cn1cnc2ccc(N3CCN(C(=O)NC4CC4)CC3)cc2c1=O)NCc1ccc(Cl)c(Cl)c1 [Example 83],30
5,O=C(Cn1cnc2ccc(N3CCN(C(=O)NC4CCCC4)CC3)cc2c1=O)NCc1ccc(Cl)c(Cl)c1 [Example 84],2
6,COCCNC(=O)N1CCN(c2ccc3ncn(CC(=O)NCc4ccc(Cl)c(Cl)c4)c(=O)c3c2)CC1 [Example 85],61
7,Cc1noc(C)c1NC(=O)N1CCN(c2ccc3ncn(CC(=O)NCc4ccc(Cl)c(Cl)c4)c(=O)c3c2)CC1 [Example 86],133
8,O=C(Cn1cnc2ccc(N3CCN(C(=O)Nc4cccnc4)CC3)cc2c1=O)NCc1ccc(Cl)c(Cl)c1 [Example 87],76
9,"CS(=O)(=O)N1CCN(c2ccc3ncn(CC(=O)NCc4ccc(Cl)c(Cl)c4)c(=O)c3c2)CC1 [Example 88, N-[(3,4-Dichlorophenyl)methyl]-2-[6-(4-methylsulfonylpiperazin-1-yl)-4-oxoquinazolin-3-yl]acetamide]",88
10,O=C(Cn1cnc2ccc(N3CCN(S(=O)(=O)C4CCCC4)CC3)cc2c1=O)NCc1ccc(Cl)c(Cl)c1 [Example 89],20
11,O=C(Cn1cnc2ccc(N3CCN(S(=O)(=O)C4CCCCC4)CC3)cc2c1=O)NCc1ccc(Cl)c(Cl)c1 [Example 90],35
12,CN(Cc1ccc(Cl)c(Cl)c1)C(=O)Cn1cnc2ccc(N3CCN(S(=O)(=O)C4CC4)CC3)cc2c1=O [Example 91],30
13,CN(Cc1ccc(Cl)c(Cl)c1)C(=O)Cn1cnc2ccc(N3CCN(S(=O)(=O)CC4CCC4)CC3)cc2c1=O [Example 92],7
14,"COC(=O)CN1CCN(c2ccc3ncn(CC(=O)NCc4ccc(Cl)c(Cl)c4)c(=O)c3c2)CC1 [Example 93, Methyl 2-[4-[3-[2-[(3,4-dichlorophenyl)methylamino]-2-oxoethyl]-4-oxoquinazolin-6-yl]piperazin-1-yl]acetate]",29
15,"O=C(Cn1cnc2ccc(N3CCN(CCO)CC3)cc2c1=O)NCc1ccc(Cl)c(Cl)c1 [Example 94, N-[(3,4-Dichlorophenyl)methyl]-2-[6-[4-(2-hydroxyethyl)piperazin-1-yl]-4-oxoquinazolin-3-yl]acetamide]",67
16,O=C(Cn1cnc2ccc(N3CCN(CC(O)CO)CC3)cc2c1=O)NCc1ccc(Cl)c(Cl)c1 (stereo not drawn) [Example 95],68
17,O=C(Cn1cnc2ccc(N3CCN(CC4CCC4)CC3)cc2c1=O)NCc1ccc(Cl)c(Cl)c1 [Example 96],11
18,O=C(Cn1cnc2ccc(N3CCN(CC4CCOC4)CC3)cc2c1=O)NCc1ccc(Cl)c(Cl)c1 (stereo not drawn) [Example 97],4
19,O=C(Cn1cnc2ccc(N3CCN(CC4CCOCC4)CC3)cc2c1=O)NCc1ccc(Cl)c(Cl)c1 [Example 98],44
20,Cn1cccc1CN1CCN(c2ccc3ncn(CC(=O)NCc4ccc(Cl)c(Cl)c4)c(=O)c3c2)CC1 [Example 99],31
21,O=C(Cn1cnc2ccc(N3CCN(Cc4ncc[nH]4)CC3)cc2c1=O)NCc1ccc(Cl)c(Cl)c1 [Example 100],204
22,O=C(Cn1cnc2ccc(N3CCN(Cc4cnc[nH]4)CC3)cc2c1=O)NCc1ccc(Cl)c(Cl)c1 [Example 101],64
23,O=C(Cn1cnc2ccc(N3CCN(Cc4ccoc4C(=O)O)CC3)cc2c1=O)NCc1ccc(Cl)c(Cl)c1 [Example 102],195
24,Cc1nc(C)c(CN2CCN(c3ccc4ncn(CC(=O)NCc5ccc(Cl)c(Cl)c5)c(=O)c4c3)CC2)o1 [Example 103],288
